Results as given in patent publication US20240307283A1, “COMPOSITIONS AND METHODS FOR DECREASING PIGMENTATION” (The General Hospital Corporation, priority 2021, published 2024).

Experiments:
primary melanocytes = assay: Cell viability of primary melanocytes, different doses; assay type: cell-based, human; settings: FIG. 10C
Method: Cell viability assay: Human melanoma cell lines and isolated primary cultured human melanocytes were propagated and tested in early passage (Passages 7 to 9). The effects of NNT inhibitors (2,3BD, DCC, and Palmitoyl coenzyme A lithium salt) on cell viability were evaluated by the CellTiter-Glo Luminescent Cell Viability Assay (Promega, #G7570) and measurement of luminescence was performed on an EnVision 2104 Multilabel Reader (PerkinElmer). Human melanoma cell lines and primary melanocytes were plated on 96-well white plates (10,000 cells/well) and were treated with the NNT inhibitors at the indicated concentrations for 24 h.

human skin explants = assay: Pigmentation of human skin explants with topical NNT inhibitors
[1] = tested on: primary human melanocytes; assay: Intracellular melanin content of primary human melanocytes with NNT inhibitors; assay type: cell-based; settings: FIG. 10D
From the text: Primary human melanocytes were isolated from normal discarded foreskins and were established in TIVA medium as described previously (Khaled et al., 2010) or in Medium 254 (Life Technologies, #M254500) (Allouche et al., 2015). Human melanoma cell line UACC257 (sex unspecified) was obtained from the National Cancer Institute (NCI), Frederick Cancer Division of Cancer Treatment and Diagnosis (DCTD) Tumor Cell Line Repository. SK-MEL-30 ([…]) human melanoma cell line was from Memorial Sloan Kettering Cancer Center. Both melanoma cell lines have been authenticated by our lab using ATCC's STR profiling service. UACC257 and SK-MEL-30 cells were cultured in DMEM and RPMI medium (Life Technologies, #11875119) respectively, supplemented with 10% fetal bovine serum and 1% penicillin/streptomycin/L-glutamine in a humidified atmosphere of 95% air and 5% CO2 at 37° C.
In vitro culture with NNT inhibitors: 2,3-Butanedione 97% (2,3 BD) (Sigma Aldrich, #B85307) (1 μM, 10 μM, 100 μM, 2 mM), N,N-Dicyclohexylcarbodiimide (DCC) (Sigma Aldrich, #D80002) (1 mM, 2 mM, 10 mM), and Palmitoyl coenzyme A lithium salt (Sigma Aldrich, #P9716) (10 μM, 2 mM) were reconstituted with DMSO (American Type Culture Collection, 4-X).
Melanin quantification: Equal numbers of cells were plated in 6-well plates. The cells were then harvested 72-96 hours post siRNA or NNT inhibitors compounds, as indicated in the legends, pelleted, washed in PBS and counted. 10^6 cells were used for measurement of protein concentration with the Pierce BCA protein assay (Thermo Fisher Scientific, #23225) and 10^6 cells were resuspended in 60 μl of 1 N NaOH solution and incubated at 60° C. for 2 h or until the melanin was completely dissolved. After cooling down to room temperature, samples were centrifuged at 500×g for 10 min and the supernatants were loaded onto a 96-well plate. The melanin content was determined by measuring the absorbance at 405 nm on an Envision plate reader, compared with a melanin standard (0 to 50 μg/ml; Sigma Aldrich, #M8631). Melanin content was expressed as micrograms per milligram of protein.

zebrafish melanocytes = assay: Chemical treatment of zebrafish, melanocytic brightness; assay type: in vivo; settings: 24 hours, 100 μM 2,3BD or 50 μM DCC
Method: (§1) Wildtype Tübingen zebrafish were placed in a 24 well plate at 72 hours post-fertilization, with 10 larvae per well for a total twenty larvae per condition. Larvae were treated for 24 hours with either 2,3BD (1 μM, 10 μM, 100 μM, 1 mM; Sigma Aldrich, #B85307), DCC (1 μM, 10 μM, 50 μM, 100 μM; Sigma Aldrich, #D80002), or DMSO (1:500) in E3 embryo medium. At 4 days post fertilization, larvae were imaged using a Nikon SMZ18 Stereomicroscope. Melanocytes from at least 5 zebrafish embryos of each group for each experiment were analyzed using the FIJI software enabling pixel-based color quantification.

[2] = tested on: Zebrafish overexpressing NNT (NNT OE); assay: 2,3BD treatment of zebrafish overexpressing NNT; assay type: in vivo; settings: 100 μM for 24 hours, FIG. 11C
Method: as §1, with “The human NNT gene was cloned into the MiniCoopR expression plasmid to allow melanocyte-specific overexpression of NNT (Ceol et al., 2011). The mcr:NNT plasmid was injected into Tubingen zebrafish embryos at the single cell stage and incorporated into the genome through the use of Tol2 transgenesis. Larvae were raised for 5 days and then at least three images were obtained and quantified using a Nikon SMZ18 Stereomicroscope. At least 5 zebrafish embryos of each group were analyzed after 5 days using the […] software enabling pixel-based color quantification. Wildtype” for “Wildtype”

In the case of CC(=O)C(C)=O [2,3BD, 2,3-Butanedione], the cell viability (primary melanocytes; different doses, relative to vehicle) is reported as “no impacts on cell viability”, the in vitro toxicity (primary melanocytes; doses up, primary melanocytes) is reported as “no significant toxicity” and the “melanin by Fontana-Masson staining” value (human skin explants; 2,3BD treated skin, FIGS. 3Ei and 10F) is reported as “increased melanin”. The “cell damage or inflammation by H&E staining” value (human skin explants; FIG. 3Eii) was “no obvious cell damage or inflammation”, the skin pigmentation (human skin explants; abdominal skin, phototype 1-2, single topical treatment 1M or 11M, after 5 days) was “strong induction of pigmentation” and the skin pigmentation (human skin explants; daily application of 50 mM, skin type 3-4, after 5 days) was “significantly increased pigmentation”. The intracellular melanin content ([1]; 2.3 BD 2 mM for 72 hours) was “significantly increased the intracellular melanin content”, the “melanin on simultaneous treatment with siNNT” value ([1]; siNNT plus 2,3 BD) was “did not further increase the melanin” and the “darkening of zebrafish embryos (melanocytic brightness)” value (zebrafish melanocytes) was “significant darkening”. The “melanocytic pigmentation of NNT overexpressing fish” value [2] was “prevented the NNT OE-induced decrease in melanocytic pigmentation”.
